Results: patent US8815849B2, “Hetero-bicyclic derivatives as HCV inhibitors” (Janssen R&D Ireland, priority 2010, dated 2014)
Where two headings read alike, the source gives them in different places.

What was measured:
[1] = tested on: HCV replicon (Huh-Luc cells, NS3-NS5B regions of HCV type 1b); experiment: HCV replicon assay (Huh-7 luc/neo, luciferase readout); type: cell-based; conditions: Huh-Luc replicon cells, three days incubation, luciferase activity, average if tested more than once, read-out: HCV-REP-HUH7LUC_EC50
Description: The in vitro antiviral activity against HCV of the compounds of formula I can be tested in a cellular HCV replicon system based on Lohmann et al. (1999) Science 285:110-113, with the further modifications described by Krieger et al. (2001) Journal of Virology 75: 4614-4624 (incorporated herein by reference), which is further exemplified in the examples section. This model, while not a complete infection model for HCV, is widely accepted as the most robust and efficient model of autonomous HCV RNA replication currently available. It will be appreciated that it is important to distinguish between compounds that specifically interfere with HCV functions from those that exert cytotoxic or cytostatic effects in the HCV replicon model, and as a consequence cause a decrease in HCV RNA or linked reporter enzyme concentration. Assays are known in the field for the evaluation of cellular cytotoxicity based for example on the activity of mitochondrial enzymes using fluorogenic redox dyes such as resazurin. Furthermore, cellular counter screens exist for the evaluation of non-selective inhibition of linked reporter gene activity, such as firefly luciferase. Appropriate cell types can be equipped by stable transfection with a luciferase reporter gene whose expression is dependent on a constitutively active gene promoter, and such cells can be used as a counter-screen to eliminate non-selective inhibitors.
The compounds of formula (I) were examined for inhibitory activity in the HCV replicon. This cellular assay is based on a bicistronic expression construct, as described by Lohmann et al. (1999) Science vol. 285 pp. 110-113 with modifications described by Krieger et al. (2001) Journal of Virology 75: 4614-4624, in a multi-target screening strategy.
The assay utilized the stably transfected cell line Huh-7 luc/neo (hereafter referred to as Huh-Luc). This cell line harbors an RNA encoding a bicistronic expression construct comprising the wild type NS3-NS5B regions of HCV type 1b translated from an
Internal Ribosome Entry Site (IRES) from encephalomyocarditis virus (EMCV), preceded by a reporter portion (FfL-luciferase), and a selectable marker portion (neo^R, neomycine phosphotransferase). The construct is flanked by 5′ and 3′ NTRs (non-translated regions) from HCV type 1b. Continued culture of the replicon cells in the presence of G418 (neo^R) is dependent on the replication of the HCV RNA. The stably transfected replicon cells that express HCV RNA, which replicates autonomously and to high levels, encoding inter alia luciferase, were used for screening the antiviral compounds.
The replicon cells were plated in 384 well plates in the presence of the test and control compounds which were added in various concentrations. Following an incubation of three days, HCV replication was measured by assaying luciferase activity (using standard luciferase assay substrates and reagents and a Perkin Elmer ViewLux™ ultraHTS microplate imager). Replicon cells in the control cultures have high luciferase expression in the absence of any inhibitor. The inhibitory activity of the compound on luciferase activity was monitored on the Huh-Luc cells, enabling a dose-response curve for each test compound. EC50 values were then calculated, which represent the amount of compound required to decrease the level of detected luciferase activity by 50%, or more specifically, to reduce the ability of the genetically linked HCV replicon RNA to replicate.
Where a compound of formula (I) was tested more than once in the replicon assay, the average of all test results is given in this Table 1.

[2] = tested on: LLC-MDR1 monolayers; type: in vitro ADME; conditions: pig, LLC-PK1, 120 min
Protocol: Assay Description for the Measurement of Transepithelial Transport of Test Compounds Through LLC-MDR1 Monolayers
The integrity of the cellular monolayer was assessed in each incubation well through the inclusion of the fluorescent, low permeability marker compound, Fluorescein.
In detail, LLC-MDR1 cells (LLC-PK1 cells stably transduced with MDR1 in a trans-well system) were seeded on 24-well cell culture inserts (Millicell®-PCF, 0.4 μm, 13 mm Ø, 0.7 cm^2) at 400 000 cells/cm^2. Cell culture medium consists of Medium 199 supplemented with 10% Fetal Bovine Serum (FBS) and 100 U/mL Penicillin/streptomycin and was replaced the day after seeding and the day before the experiment. The transport experiment was performed 5 days after seeding. On the day of the experiment, solutions of the test compounds were applied to the apical side of the monolayers to assess transport in the AtoB direction,. The medium used in the assay was (OPTI-MEM (1×) (GIBCO) with 1 w/v % Bovine Serum Albumin. Inserts were incubated at 37° C. in a humidified incubator containing 5% CO2. Samples from the acceptor and donor compartments were collected after an incubation time of 120 min, to assess the permeability and to allow estimation of the test compound recovery during the experiment, respectively. Transport experiments were performed in triplicate. Absolute test compound concentrations were measured using LC-MS/MS and quantified via a calibration curve.

SMILES	EC50 ([1]; Hepatitis C virus, Huh-7, 72 h) [nM]	A->B permeability (Papp × 10^−6 cm/sec) in the presence the P-gp inhibitor GF120918 [2]	EC50 [1] [nM]
COC(=O)N[C@H](C(=O)N1CCCC1c1cc(=O)c2ccc(-c3ccc4cc(-c5cnc([C@@H]6CCCN6C(=O)[C@@H](NC(=O)OC)C(C)C)[nH]5)ccc4c3)cc2[nH]1)C(C)C (single isomer, unassigned) [Compound 13b]	0.022	0.5 10^−6 cm/sec	
COC(=O)N[C@H](C(=O)N1CCCC1c1[nH]c2cc(-c3ccc4cc(-c5cnc([C@@H]6CCCN6C(=O)[C@@H](NC(=O)OC)C(C)C)[nH]5)ccc4c3)ccc2c(=O)c1C)C(C)C (single isomer, unassigned) [Compound 102a]	0.069	<0.6 10^−6 cm/sec	
COC(=O)N[C@H](C(=O)N1CCCC1c1[nH]c2cc(-c3ccc4cc(-c5cnc([C@@H]6CCCN6C(=O)[C@@H](NC(=O)OC)C(C)C)[nH]5)ccc4c3)ccc2c(=O)c1F)C(C)C (single isomer, unassigned) [Compound 110a]		0.4 10^−6 cm/sec	0.048
COC(=O)N[C@H](C(=O)N1CCCC1c1[nH]c2cc(-c3ccc4cc(-c5cnc([C@@H]6CCCN6C(=O)[C@@H](NC(=O)OC)C(C)C)[nH]5)ccc4c3)ccc2c(=O)c1F)C(C)C (single isomer, unassigned) [Compound 110b]		2.3 10^−6 cm/sec	0.48
CC[C@H](C)[C@H](NC(=O)OC)C(=O)N1CCCC1c1cc(=O)c2ccc(-c3ccc4cc(-c5cnc([C@@H]6CCCN6C(=O)[C@@H](NC(=O)OC)C(C)C)[nH]5)ccc4c3)cc2[nH]1 (stereo partly drawn) [Compound 13-A3]		0.9 10^−6 cm/sec	
COC(=O)N[C@H](C(=O)N1CCCC1c1cc(=O)c2cc(-c3ccc4cc(-c5cnc([C@@H]6CCCN6C(=O)[C@@H](NC(=O)OC)C(C)C)[nH]5)ccc4c3)ccc2[nH]1)C(C)C (stereo partly drawn) [Compound 22]			0.075
COC(=O)N[C@H](C(=O)N1CCCC1c1cc(=O)c2cc(-c3ccc4cc(-c5cnc([C@@H]6CCCN6C(=O)[C@@H](NC(=O)OC)[C@@H](C)OC)[nH]5)ccc4c3)ccc2[nH]1)[C@@H](C)OC (stereo partly drawn) [Compound 23]	0.47		
COC(=O)N[C@H](C(=O)N1CCCC1c1cc(=O)c2cc(-c3ccc4cc(-c5cnc([C@@H]6CCCN6C(=O)[C@@H](NC(=O)OC)[C@@H](C)OC)[nH]5)ccc4c3)ccc2[nH]1)[C@@H](C)OC (stereo partly drawn) [Compound 23b]			0.34
CC[C@H](C)[C@H](NC(=O)OC)C(=O)N1CCCC1c1cc(=O)c2cc(-c3ccc4cc(-c5cnc([C@@H]6CCCN6C(=O)[C@@H](NC(=O)OC)[C@@H](C)CC)[nH]5)ccc4c3)ccc2[nH]1 (stereo partly drawn) [Compound 24]			0.048
COC(=O)N[C@H](C(=O)N1CCC[C@H]1c1ncc(-c2ccc3cc(-c4ccc5nc([C@@H]6CCCN6C(=O)[C@@H](NC(=O)OC)C(C)C)[nH]c(=O)c5c4)ccc3c2)[nH]1)C(C)C [Compound 35]	0.64	5.0 10^−6 cm/sec	
COC(=O)N[C@H](C(=O)N1CCC[C@H]1c1ncc(-c2ccc3cc(-c4ccc5c(=O)[nH]c([C@@H]6CCCN6C(=O)[C@H](NC(=O)OC(C)(C)C)c6ccccc6)nc5c4)ccc3c2)[nH]1)C(C)C [Compound 44-1]	8.1	2.7 10^−6 cm/sec	
COC(=O)N[C@H](C(=O)N1CCC[C@H]1c1ncc(-c2ccc3cc(-c4ccc5c(=O)[nH]c([C@@H]6CCCN6C(=O)[C@H](NC(=O)OC)c6ccccc6)nc5c4)ccc3c2)[nH]1)C(C)C [Compound 44-2]	0.084	5.5 10^−6 cm/sec	
COC(=O)N[C@H](C(=O)N1CCC[C@H]1c1ncc(-c2ccc3cc(-c4ccc5c(=O)[nH]c([C@@H]6CCCN6C(=O)[C@H](NC(=O)OC6CCCC6)c6ccccc6)nc5c4)ccc3c2)[nH]1)C(C)C [Compound 44-3]	1		
COC(=O)N[C@H](C(=O)N1CCC[C@H]1c1ncc(-c2ccc3cc(-c4ccc5c(=O)[nH]c([C@@H]6CCCN6C(=O)[C@H](NC(=O)OC6CCC6)c6ccccc6)nc5c4)ccc3c2)[nH]1)C(C)C [Compound 44-4]	9.8		
COC(=O)N[C@H](C(=O)N1CCC[C@H]1c1ncc(-c2ccc3cc(-c4ccc5c(=O)[nH]c([C@@H]6CCCN6C(=O)[C@@H](NC(=O)OC)C(C)C)nc5c4)ccc3c2)[nH]1)C(C)C [Compound 44]	0.005	6.9 10^−6 cm/sec	
COC(=O)N[C@H](C(=O)N1CCC[C@H]1c1ncc(-c2ccc3cc(-c4ccc5c(=O)[nH]c([C@@H]6CC(C)(C)CN6C(=O)[C@@H](NC(=O)OC)C(C)C)nc5c4)ccc3c2)[nH]1)C(C)C [Compound 50]	0.006	5.8 10^−6 cm/sec	
COC(=O)N[C@H](C(=O)N1CCC[C@H]1C1=Nc2cc(-c3ccc4cc(-c5cnc([C@@H]6CCCN6C(=O)[C@@H](NC(=O)OC)C(C)C)[nH]5)ccc4c3)ccc2C(C)(C)N1)C(C)C [Compound 61]	0.017	4.8 10^−6 cm/sec	
COC(=O)N[C@H](C(=O)N1CCC[C@H]1C1=Nc2cc(-c3ccc4cc(-c5cnc([C@@H]6CCCN6C(=O)[C@@H](NC(=O)OC)C(C)C)[nH]5)ccc4c3)ccc2C2(COC2)N1)C(C)C [Compound 70]	0.009	7.8 10^−6 cm/sec	
COC(=O)N[C@H](C(=O)N1CCCCC1c1cc(=O)c2ccc(-c3ccc4cc(-c5cnc([C@@H]6CCCN6C(=O)[C@@H](NC(=O)OC)C(C)C)[nH]5)ccc4c3)cc2[nH]1)C(C)C (stereo partly drawn) [Compound 76]	0.034	3.1 10^−6 cm/sec	
COC(=O)N[C@H](C(=O)N1CCC[C@H]1C1=NS(=O)(=O)c2ccc(-c3ccc4cc(-c5cnc([C@@H]6CCCN6C(=O)[C@@H](NC(=O)OC)C(C)C)[nH]5)ccc4c3)cc2N1)C(C)C [Compound 84]	0.034	0.4 10^−6 cm/sec	
COC(=O)N[C@H](C(=O)N1CCCC1c1cc(=O)c2ncc(-c3ccc4cc(-c5cnc([C@@H]6CCCN6C(=O)[C@@H](NC(=O)OC)C(C)C)[nH]5)ccc4c3)cc2[nH]1)C(C)C (stereo partly drawn) [Compound 97]	0.24		
COC(=O)N[C@H](C(=O)N1CCCC1c1[nH]c2cc(-c3ccc4cc(-c5cnc([C@@H]6CCCN6C(=O)[C@@H](NC(=O)OC)C(C)C)[nH]5)ccc4c3)ccc2c(=O)c1C)C(C)C (stereo partly drawn) [Compound 102b]	20.6		
COC(=O)N[C@H](C(=O)N1CCC[C@H]1c1ncc(-c2ccc3cc(-c4ccc5c(=O)cc(C6C[C@@H]7CCCC[C@@H]7N6C(=O)[C@@H](NC(=O)OC)C(C)C)[nH]c5c4)ccc3c2)[nH]1)C(C)C (stereo partly drawn) [Compound 119a]	0.033		
